# Measured values: patent US20120190669A1, “OXINDOLE COMPOUNDS” (CYLENE PHARMACEUTICALS, INC., priority 2008, published 2012)
# pIC50: −log10 of the molar value.
# Test system: K-562
# Experiment: Alamar Blue cell proliferation assay, K-562
# Format: cell-based
# Settings: Homo sapiens, K562, Table 3, read-out: AB: K-562
# Description: (§1) A representative cell-proliferation assay protocol using Alamar Blue dye (stored at 4° C., use 20 ul per well) is described hereafter.
# (§2) 96-Well Plate Setup and Compound Treatment
# (§3) a. Split and trypsinize cells.
# (§4) b. Count cells using hemocytometer.
# (§5) c. Plate 4,000-5,000 cells per well in 100 μl of medium and seed into a 96-well plate according to the following plate layout. Add cell culture medium only to wells B10 to B12. Wells B1 to B9 have cells but no compound added.
# (§6) d. Add 100 μl of 2× drug dilution to each well in a concentration shown in the plate layout above. At the same time, add 100 μl of media into the control wells (wells 1310 to B12). Total volume is 200 μl/well.
# (§7) e. Incubate four (4) days at 37° C., 5% CO2 in a humidified incubator.
# (§8) f. Add 20 μl Alamar Blue reagent to each well.
# (§9) g. Incubate for four (4) hours at 37° C., 5% CO2 in a humidified incubator.
# (§10) h. Record fluorescence at an excitation wavelength of 544 nm and emission wavelength of 590 nm using a microplate reader.
# (§11) In the assays, cells are cultured with a test compound for approximately four days, the dye is then added to the cells and fluorescence of […] dye is detected after approximately four hours. Different types of cells can be utilized in the assays (e.g., HCT-116 human colorectal carcinoma cells, PC-3 human prostatic cancer cells and MiaPaca human pancreatic carcinoma cells).
row,SMILES,pIC50
1,O=C1Nc2ccc(Cl)cc2/C1=C\c1ccc(-c2cccc(-c3nnc[nH]3)c2)o1,< 5.00
2,CC(=O)Nc1cccc(-c2ccc(/C=C3\C(=O)Nc4ccc(Cl)cc43)o2)c1,< 5.00
3,NC(=O)c1ccc(-c2ccc(/C=C3\C(=O)Nc4ccc(Cl)cc43)o2)cc1,< 5.00

# Further lines, results first:
row,pIC50,SMILES
1,6.82,CC/C(=C1\C(=O)Nc2ccc(Cl)cc21)c1ccc(-c2cccc(C(=O)N3CCCN(C)CC3)c2)o1
2,6.47,O=C1Nc2ccc(Cl)cc2/C1=C\c1ccc(-c2cccc(C(=O)N3CCCNCC3)c2)o1
3,< 5.00,O=C1Nc2ccc(Cl)cc2/C1=C/c1ccc(-c2ccc3cc(O)ccc3c2)o1
4,< 5.00,NC(=O)c1cccc(-c2ccc(/C=C3\C(=O)Nc4ccc(Cl)cc43)o2)c1
5,< 5.00,O=C1Nc2ccc(Cl)cc2/C1=C\c1ccc(-c2ccc(OCCN3CCOCC3)cc2)o1
6,5.63,O=C1Nc2ccc(Cl)cc2/C1=C/c1ccc(-c2cnn(CCN3CCOCC3)c2)o1
7,< 5.00,CCN(CC)CCNC(=O)c1ccc(-c2ccc(/C=C3/C(=O)Nc4ccc(Cl)cc43)o2)cc1 [drawing 216]
8,5.54,CS(=O)(=O)Nc1ccc(-c2ccc(/C=C3\C(=O)Nc4ccc(Cl)cc43)o2)cc1

# Same assay, conditions: Homo sapiens, K562, Table 4, read-out: AB: K-562
row,pIC50,SMILES
1,6.54,O=C1Nc2ccc(Cl)cc2/C1=C\c1ccc(-c2cccc(C(=O)NCCCn3ccnc3)c2)o1 [drawing 233]
2,6.44,CN(C)CCNC(=O)c1cccc(-c2ccc(/C=C3/C(=O)Nc4ccc(Cl)cc43)o2)c1 [drawing 232]

# Test system: MDAMB-231
# Experiment: Alamar Blue cell proliferation assay, MDAMB-231
# Format: cell-based
# Settings: Homo sapiens, MDA-MB-231, Table 3, read-out: AB: MDAMB-231
# Description: as §1, §2, §3, §4, §5, §6, §7, §8, §9, §10, §11
row,SMILES,pIC50
1,O=C1Nc2ccc(Cl)cc2/C1=C\c1ccc(-c2cccc(-c3nnc[nH]3)c2)o1,< 5.00
2,CC(=O)Nc1cccc(-c2ccc(/C=C3\C(=O)Nc4ccc(Cl)cc43)o2)c1,< 5.00
3,NC(=O)c1ccc(-c2ccc(/C=C3\C(=O)Nc4ccc(Cl)cc43)o2)cc1,< 5.00

# Continued, values first:
row,pIC50,SMILES
1,< 5.00,CC/C(=C1\C(=O)Nc2ccc(Cl)cc21)c1ccc(-c2cccc(C(=O)N3CCCN(C)CC3)c2)o1
2,5.50,O=C1Nc2ccc(Cl)cc2/C1=C\c1ccc(-c2cccc(C(=O)N3CCCNCC3)c2)o1
3,< 5.00,O=C1Nc2ccc(Cl)cc2/C1=C/c1ccc(-c2ccc3cc(O)ccc3c2)o1
4,< 5.00,NC(=O)c1cccc(-c2ccc(/C=C3\C(=O)Nc4ccc(Cl)cc43)o2)c1
5,< 5.00,O=C1Nc2ccc(Cl)cc2/C1=C\c1ccc(-c2ccc(OCCN3CCOCC3)cc2)o1
6,< 5.00,O=C1Nc2ccc(Cl)cc2/C1=C/c1ccc(-c2cnn(CCN3CCOCC3)c2)o1
7,< 5.00,CCN(CC)CCNC(=O)c1ccc(-c2ccc(/C=C3/C(=O)Nc4ccc(Cl)cc43)o2)cc1 [drawing 216]
8,< 5.00,CS(=O)(=O)Nc1ccc(-c2ccc(/C=C3\C(=O)Nc4ccc(Cl)cc43)o2)cc1

# Test system: MV-4-11
# Experiment: Alamar Blue cell proliferation assay, MV-4-11
# Format: cell-based
# Settings: Homo sapiens, MV4-11, Table 3, read-out: AB: MV-4-11
# Description: as §1, §2, §3, §4, §5, §6, §7, §8, §9, §10, §11
row,SMILES,pIC50
1,O=C1Nc2ccc(Cl)cc2/C1=C\c1ccc(-c2cccc(-c3nnc[nH]3)c2)o1,< 5.00
2,CC(=O)Nc1cccc(-c2ccc(/C=C3\C(=O)Nc4ccc(Cl)cc43)o2)c1,6.13

# Second part, the compound after the results:
row,pIC50,SMILES
1,6.96,CC/C(=C1\C(=O)Nc2ccc(Cl)cc21)c1ccc(-c2cccc(C(=O)N3CCCN(C)CC3)c2)o1
2,6.72,O=C1Nc2ccc(Cl)cc2/C1=C/c1ccc(-c2ccc3cc(O)ccc3c2)o1
3,5.72,NC(=O)c1cccc(-c2ccc(/C=C3\C(=O)Nc4ccc(Cl)cc43)o2)c1
4,< 5.00,O=C1Nc2ccc(Cl)cc2/C1=C\c1ccc(-c2ccc(OCCN3CCOCC3)cc2)o1
5,6.70,O=C1Nc2ccc(Cl)cc2/C1=C/c1ccc(-c2cnn(CCN3CCOCC3)c2)o1
6,< 6.00,CCN(CC)CCNC(=O)c1ccc(-c2ccc(/C=C3/C(=O)Nc4ccc(Cl)cc43)o2)cc1 [drawing 216]
7,5.65,CS(=O)(=O)Nc1ccc(-c2ccc(/C=C3\C(=O)Nc4ccc(Cl)cc43)o2)cc1

# Same assay, conditions: Homo sapiens, MV4-11, Table 4, read-out: AB: MV-4-11
row,pIC50,SMILES
1,7.17,O=C1Nc2ccc(Cl)cc2/C1=C\c1ccc(-c2cccc(C(=O)NCCCn3ccnc3)c2)o1 [drawing 233]
2,5.52,CN(C)CCNC(=O)c1cccc(-c2ccc(/C=C3/C(=O)Nc4ccc(Cl)cc43)o2)c1 [drawing 232]

# Test system: phospho BAD
# Experiment: phospho BAD cell-based data
# Settings: Table 4
row,pIC50,SMILES
1,5.73,O=C1Nc2ccc(Cl)cc2/C1=C\c1ccc(-c2cccc(C(=O)NCCCn3ccnc3)c2)o1 [drawing 233]
2,6.35,CN(C)CCNC(=O)c1cccc(-c2ccc(/C=C3/C(=O)Nc4ccc(Cl)cc43)o2)c1 [drawing 232]

# Molecular target: recombinant PIM-1 (Homo sapiens, UniProt P11309)
# Sequence (P11309 whole entry): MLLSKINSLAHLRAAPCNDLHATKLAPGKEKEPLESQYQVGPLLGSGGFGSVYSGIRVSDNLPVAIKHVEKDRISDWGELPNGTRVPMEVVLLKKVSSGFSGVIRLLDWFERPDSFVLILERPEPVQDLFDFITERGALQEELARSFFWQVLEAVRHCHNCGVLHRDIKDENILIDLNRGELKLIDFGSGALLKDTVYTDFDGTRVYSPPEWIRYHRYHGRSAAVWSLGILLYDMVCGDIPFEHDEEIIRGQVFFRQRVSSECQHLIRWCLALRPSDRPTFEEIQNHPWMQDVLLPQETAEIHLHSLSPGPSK
# Experiment: PIM-1 kinase assay (radiometric, 15 uM ATP, DMSO 4%)
# Format: biochemical
# Settings: Table 3; DMSO 4%; read-out: PIM1: IC50 (DMSO 4%)
row,SMILES,pIC50
1,O=C1Nc2ccc(Cl)cc2/C1=C\c1ccc(-c2cccc(-c3nnc[nH]3)c2)o1,> 6.00
2,CC(=O)Nc1cccc(-c2ccc(/C=C3\C(=O)Nc4ccc(Cl)cc43)o2)c1,> 6.00
3,NC(=O)c1ccc(-c2ccc(/C=C3\C(=O)Nc4ccc(Cl)cc43)o2)cc1,> 6.00

# Now from value to compound:
row,pIC50,SMILES
1,> 6.00,O=C1Nc2ccc(Cl)cc2/C1=C/c1ccc(-c2ccc3cc(O)ccc3c2)o1
2,> 6.00,NC(=O)c1cccc(-c2ccc(/C=C3\C(=O)Nc4ccc(Cl)cc43)o2)c1
3,> 6.00,O=C1Nc2ccc(Cl)cc2/C1=C\c1ccc(-c2ccc(OCCN3CCOCC3)cc2)o1
4,> 6.00,O=C1Nc2ccc(Cl)cc2/C1=C/c1ccc(-c2cnn(CCN3CCOCC3)c2)o1
5,> 6.00,CCN(CC)CCNC(=O)c1ccc(-c2ccc(/C=C3/C(=O)Nc4ccc(Cl)cc43)o2)cc1 [drawing 216]
6,> 6.00,CS(=O)(=O)Nc1ccc(-c2ccc(/C=C3\C(=O)Nc4ccc(Cl)cc43)o2)cc1

# Same assay, conditions: Table 4; 15 um ATP; read-out: PIM1: IC50 (15 um ATP)
row,pIC50,SMILES
1,6.42,O=C1Nc2ccc(Cl)cc2/C1=C\c1ccc(-c2cccc(C(=O)NCCCn3ccnc3)c2)o1 [drawing 233]
2,6.54,CN(C)CCNC(=O)c1cccc(-c2ccc(/C=C3/C(=O)Nc4ccc(Cl)cc43)o2)c1 [drawing 232]

# Test system: PC-3 human prostatic cancer cells
# Experiment: Alamar Blue cell proliferation assay, PC3
# Format: cell-based
# Settings: Table 3, read-out: AB: PC3
# Description: as §1, §2, §3, §4, §5, §6, §7, §8, §9, §10, §11
row,SMILES,pIC50
1,O=C1Nc2ccc(Cl)cc2/C1=C\c1ccc(-c2cccc(-c3nnc[nH]3)c2)o1,< 4.52
2,CC(=O)Nc1cccc(-c2ccc(/C=C3\C(=O)Nc4ccc(Cl)cc43)o2)c1,5.57
3,NC(=O)c1ccc(-c2ccc(/C=C3\C(=O)Nc4ccc(Cl)cc43)o2)cc1,< 4.52

# More lines, now with the values ahead:
row,pIC50,SMILES
1,< 4.52,CC/C(=C1\C(=O)Nc2ccc(Cl)cc21)c1ccc(-c2cccc(C(=O)N3CCCN(C)CC3)c2)o1
2,5.02,O=C1Nc2ccc(Cl)cc2/C1=C\c1ccc(-c2cccc(C(=O)N3CCCNCC3)c2)o1
3,4.92,O=C1Nc2ccc(Cl)cc2/C1=C/c1ccc(-c2ccc3cc(O)ccc3c2)o1
4,< 4.52,NC(=O)c1cccc(-c2ccc(/C=C3\C(=O)Nc4ccc(Cl)cc43)o2)c1
5,< 4.52,O=C1Nc2ccc(Cl)cc2/C1=C\c1ccc(-c2ccc(OCCN3CCOCC3)cc2)o1
6,< 4.52,O=C1Nc2ccc(Cl)cc2/C1=C/c1ccc(-c2cnn(CCN3CCOCC3)c2)o1
7,4.96,CS(=O)(=O)Nc1ccc(-c2ccc(/C=C3\C(=O)Nc4ccc(Cl)cc43)o2)cc1

# Test system: HCT-116 human colorectal carcinoma cells
# Experiment: Alamar Blue cell proliferation assay, HCT-116
# Format: cell-based
# Settings: Table 4, read-out: AB: HCT-116
# Description: as §1, §2, §3, §4, §5, §6, §7, §8, §9, §10, §11
row,pIC50,SMILES
1,6.50,O=C1Nc2ccc(Cl)cc2/C1=C\c1ccc(-c2cccc(C(=O)NCCCn3ccnc3)c2)o1 [drawing 233]
2,5.93,CN(C)CCNC(=O)c1cccc(-c2ccc(/C=C3/C(=O)Nc4ccc(Cl)cc43)o2)c1 [drawing 232]

# Test system: MiaPaca human pancreatic carcinoma cells
# Experiment: Alamar Blue cell proliferation assay, MiaPaCa
# Format: cell-based
# Settings: MIA PaCa-2, Table 3, read-out: AB: MiaPaCa
# Description: as §1, §2, §3, §4, §5, §6, §7, §8, §9, §10, §11
row,SMILES,pIC50
1,O=C1Nc2ccc(Cl)cc2/C1=C\c1ccc(-c2cccc(-c3nnc[nH]3)c2)o1,< 5.00
2,CC(=O)Nc1cccc(-c2ccc(/C=C3\C(=O)Nc4ccc(Cl)cc43)o2)c1,< 5.00
3,NC(=O)c1ccc(-c2ccc(/C=C3\C(=O)Nc4ccc(Cl)cc43)o2)cc1,< 5.00

# Now from value to compound:
row,pIC50,SMILES
1,6.52,CC/C(=C1\C(=O)Nc2ccc(Cl)cc21)c1ccc(-c2cccc(C(=O)N3CCCN(C)CC3)c2)o1
2,6.09,O=C1Nc2ccc(Cl)cc2/C1=C\c1ccc(-c2cccc(C(=O)N3CCCNCC3)c2)o1
3,< 5.00,O=C1Nc2ccc(Cl)cc2/C1=C/c1ccc(-c2ccc3cc(O)ccc3c2)o1
4,< 5.00,NC(=O)c1cccc(-c2ccc(/C=C3\C(=O)Nc4ccc(Cl)cc43)o2)c1
5,< 5.00,O=C1Nc2ccc(Cl)cc2/C1=C\c1ccc(-c2ccc(OCCN3CCOCC3)cc2)o1
6,< 5.00,O=C1Nc2ccc(Cl)cc2/C1=C/c1ccc(-c2cnn(CCN3CCOCC3)c2)o1
7,< 5.00,CCN(CC)CCNC(=O)c1ccc(-c2ccc(/C=C3/C(=O)Nc4ccc(Cl)cc43)o2)cc1 [drawing 216]
8,< 5.00,CS(=O)(=O)Nc1ccc(-c2ccc(/C=C3\C(=O)Nc4ccc(Cl)cc43)o2)cc1

# Same assay, conditions: MIA PaCa-2, Table 4, read-out: AB: MiaPaCa
row,pIC50,SMILES
1,6.63,O=C1Nc2ccc(Cl)cc2/C1=C\c1ccc(-c2cccc(C(=O)NCCCn3ccnc3)c2)o1 [drawing 233]
2,5.71,CN(C)CCNC(=O)c1cccc(-c2ccc(/C=C3/C(=O)Nc4ccc(Cl)cc43)o2)c1 [drawing 232]

# Test system: phospho FLT3
# Experiment: phospho FLT3 cell-based data
# Settings: Table 4
row,pIC50,SMILES
1,< 5.00,O=C1Nc2ccc(Cl)cc2/C1=C\c1ccc(-c2cccc(C(=O)NCCCn3ccnc3)c2)o1 [drawing 233]
2,5.28,CN(C)CCNC(=O)c1cccc(-c2ccc(/C=C3/C(=O)Nc4ccc(Cl)cc43)o2)c1 [drawing 232]
